Patent US11214803B2, “Modulators of YAP1 expression” (Ionis Pharmaceuticals, Inc., priority 2019, dated 2022)
Strand notation (5' to 3'): a small letter for the sugar, then the base; units joined by * are phosphorothioate-linked, units joined directly phosphodiester-linked; [ ] holds rarer units or linkages, { } end groups; capitals alone tell only the bases. k = constrained ethyl (cEt); [5mC] = 5-methylcytosine; d = 2'-deoxy (DNA)

These substances were tested on Yap1 mRNA (assay: Antisense inhibition of human Yap1 in A-431 cells by cEt gapmers, single dose (Example 4, RTS4814)). Conditions: Table 14; A-431 cells, 5,000 cells per well, free uptake, 2,000 nM, approximately 48 hours; RTS4814; normalized to RIBOGREEN; Yap1 mRNA relative to untreated control; * = targets amplicon region of primer probe set.
Type: cell-based
Method in brief: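 Values are % UTC: Yap1 mRNA by quantitative RT-PCR, normalized to RIBOGREEN total RNA. Cells were exposed ~48 h to 2,000 nM oligonucleotide without transfection. Oligonucleotides were 16-nucleoside gapmers with three cEt nucleosides per wing, ten-deoxy gap, P=S linkages throughout.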

Substance | YAP1 (% UTC)
1075840 (k[5mC]*k[5mC]*kT*dA*dA*dA*dA*dT*dA*dG*dG*dA*dA*kT*kG*k[5mC]; antisense) [Compound 1075840] | 89
1074176 (antisense k[5mC]*kT*k[5mC]*d[5mC]*d[5mC]*d[5mC]*d[5mC]*dG*dA*d[5mC]*dG*d[5mC]*dG*k[5mC]*kA*k[5mC]) [Compound 1074176] | 84
1075744 (kT*kT*k[5mC]*dG*dG*dG*dT*dT*dA*dG*d[5mC]*dA*dG*kA*k[5mC]*kT; antisense) [Compound 1075744] | 6
1076128 (kT*k[5mC]*kT*dA*dA*dA*d[5mC]*d[5mC]*dT*dA*dA*dA*dG*kA*k[5mC]*kT; antisense) [Compound 1076128] | 118
1074272 (antisense kT*kA*kT*dA*dG*dT*dA*dA*dA*dT*dT*dT*d[5mC]*kT*k[5mC]*k[5mC]) [Compound 1074272] | 16
1074560 (antisense k[5mC]*k[5mC]*kA*dA*dT*d[5mC]*dG*dA*dG*dA*d[5mC]*dT*dT*kA*kA*kA) [Compound 1074560] | 3
1075232 (antisense kA*kT*kT*dT*dA*dT*d[5mC]*dA*dG*d[5mC]*d[5mC]*dA*dT*kT*kG*kT) [Compound 1075232] | 13

Same assay, conditions: Table 15; A-431 cells, 5,000 cells per well, free uptake, 2,000 nM, approximately 48 hours; RTS4814; normalized to RIBOGREEN; Yap1 mRNA relative to untreated control; * = targets amplicon region of primer probe set

Substance | YAP1 (% UTC)
1076097 (k[5mC]*kA*kA*dT*dA*dA*dT*dA*dA*dA*d[5mC]*dG*dA*kT*kT*k[5mC]; antisense) [Compound 1076097] | 70
1075009 (antisense kA*kT*kA*dA*dT*d[5mC]*dG*dA*dA*d[5mC]*dA*dT*dT*kG*kT*kG) [Compound 1075009] | 43
1076065 (k[5mC]*kT*kT*dT*dA*dG*dT*dA*dA*d[5mC]*dA*d[5mC]*dG*kA*kA*kT; antisense) [Compound 1076065] | 36
1075425 (antisense kA*kT*kT*dA*dT*dT*dA*dA*dT*d[5mC]*d[5mC]*dT*dG*kT*k[5mC]*k[5mC]) [Compound 1075425] | 26
1075233 (antisense kG*kT*kA*dA*dT*dT*dT*dA*dT*d[5mC]*dA*dG*d[5mC]*k[5mC]*kA*kT) [Compound 1075233] | 2
1075073 (antisense k[5mC]*kA*kT*dA*dA*dA*dA*dG*dT*dT*d[5mC]*d[5mC]*d[5mC]*k[5mC]*kA*kG) [Compound 1075073] | 51
1075713 (kA*kA*kT*d[5mC]*dA*dA*d[5mC]*d[5mC]*dT*dT*dG*dT*dT*kA*kG*kA; antisense) [Compound 1075713] | 58
1075105 (antisense kA*kA*kT*dT*dA*dT*dA*dA*dG*dG*dT*d[5mC]*d[5mC]*kT*kA*k[5mC]) [Compound 1075105] | 42
1074689 (antisense k[5mC]*kT*k[5mC]*d[5mC]*d[5mC]*d[5mC]*d[5mC]*dT*dA*dA*dG*d[5mC]*dT*kA*kA*kA) [Compound 1074689] | 70

Same assay, conditions: Table 16; A-431 cells, 5,000 cells per well, free uptake, 2,000 nM, approximately 48 hours; RTS4814; normalized to RIBOGREEN; Yap1 mRNA relative to untreated control cells

Substance | YAP1 (% UTC)
1075682 (kG*kA*kT*dA*dA*dT*dT*dA*dT*dT*dA*d[5mC]*d[5mC]*k[5mC]*k[5mC]*kT; antisense) [Compound 1075682] | 35
1075202 (antisense kA*kA*kT*dT*dA*dT*dA*dT*dA*dA*dG*dG*d[5mC]*kT*kG*kT) [Compound 1075202] | 26
1075810 (kG*kT*kA*dG*d[5mC]*dA*dA*dT*dA*dG*dA*dG*dT*kA*kA*k[5mC]; antisense) [Compound 1075810] | 7
1074530 (k[5mC]*kT*kA*dA*dA*d[5mC]*dT*dA*d[5mC]*dT*dT*d[5mC]*dA*kA*kA*k[5mC]; antisense) [Compound 1074530] | 88
1076034 (kA*kA*kT*dT*dA*dG*dA*dA*dA*d[5mC]*dT*dT*dG*kG*k[5mC]*k[5mC]; antisense) [Compound 1076034] | 74
1076098 (kT*kT*kA*d[5mC]*dA*dA*dT*dA*dA*dT*dA*dA*dA*k[5mC]*kG*kA; antisense) [Compound 1076098] | 94
1075906 (k[5mC]*k[5mC]*kT*d[5mC]*dA*dA*dT*dA*d[5mC]*dA*dG*dA*dT*kG*kA*kA; antisense) [Compound 1075906] | 39
1074786 (kA*kA*k[5mC]*d[5mC]*dA*dT*dA*dA*dG*dT*dA*dG*dA*kT*k[5mC]*kT; antisense) [Compound 1074786] | 28

Same assay, conditions: Table 17; A-431 cells, 5,000 cells per well, free uptake, 2,000 nM, approximately 48 hours; RTS4814; normalized to RIBOGREEN; Yap1 mRNA relative to untreated control cells

Substance | YAP1 (% UTC)
1074627 (antisense k[5mC]*k[5mC]*kT*dG*dT*dT*dA*dT*dG*dA*dA*d[5mC]*d[5mC]*k[5mC]*kT*kT) [Compound 1074627] | 3
1075907 (kA*kA*kT*dT*dA*d[5mC]*dT*dA*d[5mC]*dT*dG*dG*d[5mC]*k[5mC]*kA*kT; antisense) [Compound 1075907] | 55
1075779 (kG*kT*kA*dT*dT*dA*d[5mC]*dA*dA*dA*d[5mC]*dT*dG*kA*kT*kT; antisense) [Compound 1075779] | 28
1075107 (antisense kT*kA*kA*dA*dA*dA*d[5mC]*dA*dT*dT*dG*dT*dG*kG*k[5mC]*k[5mC]) [Compound 1075107] | 114
1076387 (kT*kG*kA*d[5mC]*dA*dA*d[5mC]*dA*d[5mC]*dA*dG*dT*dT*kA*kT*kA; antisense) [Compound 1076387] | 13
1075331 (kG*kA*kT*dA*dA*dA*d[5mC]*dA*d[5mC]*dT*dG*d[5mC]*dA*kG*kA*kG; antisense) [Compound 1075331] | 33
1074147 (antisense kA*kG*kA*dA*dG*d[5mC]*dG*dG*d[5mC]*dG*dA*d[5mC]*dG*kG*k[5mC]*kT) [Compound 1074147] | 23

Same assay, conditions: Yap1 mRNA remaining as percent of untreated control; 3-10-3 cEt gapmers; A-431 cells; Table 36

Substance | YAP1 (% UTC)
1074198 (antisense kT*kT*kG*d[5mC]*d[5mC]*d[5mC]*dG*dG*dG*dT*d[5mC]*d[5mC]*dG*kG*kA*k[5mC]) [compound 1074198] | 112
1076150 (kA*kT*kT*dT*dA*dT*dT*dA*dA*d[5mC]*dT*d[5mC]*dA*k[5mC]*kG*kA; antisense) [compound 1076150] | 11
1074838 (kA*kT*kA*dA*d[5mC]*dA*dA*d[5mC]*dA*dT*dG*d[5mC]*dT*kT*kG*k[5mC]; antisense) [compound 1074838] | 9
1074294 (antisense kT*kT*kG*dG*dA*dG*dT*dT*dG*d[5mC]*dT*dG*d[5mC]*k[5mC]*kA*k[5mC]) [compound 1074294] | 80
1075830 (kG*kA*kT*dG*dA*dA*d[5mC]*dA*d[5mC]*dT*d[5mC]*dA*dA*kT*kA*kG; antisense) [compound 1075830] | 12

Same assay, conditions: Yap1 mRNA remaining as percent of untreated control; 3-10-3 cEt gapmers; A-431 cells; Table 37

Substance | YAP1 (% UTC)
1075799 (k[5mC]*k[5mC]*kT*d[5mC]*dA*dA*d[5mC]*dA*d[5mC]*dA*dT*dT*dT*kG*kA*kG; antisense) [compound 1075799] | 85
1075991 (kA*kT*kA*dT*dA*dG*dG*dA*d[5mC]*d[5mC]*dA*d[5mC]*dG*kA*k[5mC]*kT; antisense) [compound 1075991] | 62
1074871 (kT*kG*kT*dA*dA*dG*dT*dA*d[5mC]*d[5mC]*dT*dA*dA*k[5mC]*kA*kT; antisense) [compound 1074871] | 70
1076535 (kA*kT*kT*dT*dT*dT*dA*dG*d[5mC]*dT*d[5mC]*dG*d[5mC]*kA*kA*kT; antisense) [compound 1076535] | 28
1074359 (antisense kT*kT*k[5mC]*dG*dA*dG*dG*dG*dA*d[5mC]*dA*d[5mC]*dT*kG*kT*kA) [compound 1074359] | 18
1074583 (DNA kG*kT*kA*dA*dA*d[5mC]*d[5mC]*dA*d[5mC]*dT*dA*dT*dA*kA*kA*kG; antisense) [compound 1074583] | 30
1074327 (antisense kT*kA*k[5mC]*dG*d[5mC]*dA*dG*dG*dG*d[5mC]*dT*dA*dA*k[5mC]*kT*k[5mC]) [compound 1074327] | 39
1075639 (antisense kA*kA*kT*dT*dA*dA*d[5mC]*d[5mC]*dA*dG*dA*dA*dG*k[5mC]*k[5mC]*kT) [compound 1075639] | 101
1074935 (antisense kA*k[5mC]*kA*dG*dG*dA*dG*dA*d[5mC]*dT*dA*dT*dA*k[5mC]*kA*kA) [compound 1074935] | 80

Same assay, conditions: table after Table 37, headed TABLE 32 (gapmers targeting SEQ ID NO.: 3); A-431 cells, free uptake, 2,000 nM, approximately 48 hours, RTS4814

Substance | YAP1 (% UTC)
1074886 (k[5mC]*kA*kG*dG*dG*d[5mC]*dT*dA*dA*d[5mC]*dT*d[5mC]*d[5mC]*kT*kG*k[5mC]; antisense) [compound 1074886] | 104
